{"source": "patent US20060252683A1", "about": "“Preparation of a peptide compound (SYRAPRO-2000) and its use for the activation of protein phosphatase-2A1 enzyme” (priority 2005, published 2006)", "key": {"[1]": {"test": "Dissolution of purified peptide in water", "format": "physicochemical", "experimental": "SYRAPRO-2000, a peptide compound activator of protein phosphatase-2A1 was prepared by chemical synthesis on an automated Solid Phase Peptide Synthesizer. Following synthesis, it was cleaved and purified by reverse phase HPLC on a C18 column. The structure of SYRAPRO-2000 is: […]. The molecular mass of SYRAPRO-2000 was determined by MALDI ToF MS. The purified material, a white solid was readily dissolved in and reconstituted in water at ˜1-2 mg/ml. For its use as an in vitro activator of protein phosphatase-2A1, it is dissolved in the assay buffer which consisted of 0.02 ml of enzyme solution in 50 mM Imidazole-Cl pH 7.2, 0.2 mM EGTA, 0.1% (v/v) 2-mercaptoethanol and 1 mg/ml bovine serum albumin. For its use on intact cells, it is dissolved in the culture medium."}, "[2]": {"biological_target": "T1, protein phosphatase-1 (Oryctolagus cuniculus, UniProt P62139)", "T1 construct": "Protein phosphatase-1 was purified from rabbit skeletal muscle; from tissue; host or cells: rabbit skeletal muscle", "T1 sequence (P62139 whole entry)": "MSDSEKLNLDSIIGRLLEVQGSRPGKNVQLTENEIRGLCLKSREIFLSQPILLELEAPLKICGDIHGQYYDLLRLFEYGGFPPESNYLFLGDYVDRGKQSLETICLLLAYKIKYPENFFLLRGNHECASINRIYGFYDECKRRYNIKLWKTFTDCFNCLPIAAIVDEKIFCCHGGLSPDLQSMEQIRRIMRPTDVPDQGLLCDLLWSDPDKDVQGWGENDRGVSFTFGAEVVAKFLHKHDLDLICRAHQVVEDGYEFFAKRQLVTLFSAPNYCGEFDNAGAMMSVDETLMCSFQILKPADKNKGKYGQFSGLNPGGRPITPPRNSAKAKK", "test": "Protein phosphatase-1 assay", "format": "biochemical, rabbit", "details": "various concentrations", "experimental": "(§1) Protein phosphatase-1 (squares), protein phosphatase-2A1 (circles), protein phosphatase-2B (triangles) and protein phosphatase-2C (stars) were assayed in the presence of various concentrations of HIV-1 Vpr^71-96. 100 percent protein phosphatase activity is equivalent to 0.005 unit. Similar results were obtained in 3 independent experiments.\n(§2) ^32P-labeled phosphorylase a was prepared by phosphorylation of phosphorylase b with phosphorylase kinase as described in (Cohen 1988). ^32P-labeled casein was prepared by phosphorylation of casein with protein kinase A as described in (Tung 1986). Protein phosphatase-1 was purified from rabbit skeletal muscle as described in (Cohen 1988). Protein phosphatase-1 inhibitor-2 was purified from rabbit skeletal muscle as described in (Yang 1981). Protein phosphatase-2A0 and protein phosphatase-2A1 from pig brain and from pig liver were purified as described in (Tung 1985). Protein phosphatase-2A0 and protein phosphatase-2A1 from pig adipose tissue were highly purified by successive chromatography of pig subcutaneous adipose tissue extracts on DEAE Sepharose, Poly-L-lysine Agarose, Sephacryl S-300 HR and thiophosphorylase-a-Sepharose-4B as described in (Tung 1985). Protein phosphatase-2B was purified from pig brain as described in (Tung 1986). […]"}, "[3]": {"tested_on": "protein phosphatase-2C", "test": "Protein phosphatase-2C assay", "format": "biochemical, pig", "details": "various concentrations", "experimental": "as §1, §2"}}, "data": [{"smiles": "CC[C@H](C)[C@H](NC(=O)[C@H](CCCNC(=N)N)NC(=O)[C@H](CO)NC(=O)[C@H](Cc1c[nH]cn1)NC(=O)[C@H](CCCNC(=N)N)NC(=O)[C@H](CS)NC(=O)CNC(=O)[C@@H](NC(=O)[C@H](CCCNC(=N)N)NC(=O)[C@H](Cc1ccccc1)NC(=O)[C@@H](N)Cc1c[nH]cn1)[C@@H](C)CC)C(=O)NCC(=O)N[C@H](C(=O)N[C@H](C(=O)N[C@@H](CCCNC(=N)N)C(=O)N[C@@H](CCC(N)=O)C(=O)N[C@@H](CCCNC(=N)N)C(=O)N[C@@H](CCCNC(=N)N)C(=O)N[C@@H](C)C(=O)N[C@@H](CCCNC(=N)N)C(=O)N[C@@H](CC(N)=O)C(=O)NCC(=O)N[C@@H](C)C(=O)N[C@@H](CO)C(=O)N[C@@H](CCCNC(=N)N)C(=O)N[C@@H](CO)C(=O)O)[C@@H](C)O)C(C)C", "note": "[SYRAPRO-2000]", "values": [{"measurement": "readily dissolved and reconstituted in water", "setting": "[1]", "result": "1 to 2", "unit": "mg/mL"}, {"measurement": "effect on activity of protein phosphatase-1", "setting": "[2]", "result": "negligible effect"}, {"measurement": "effect on activity of protein phosphatase-2C", "setting": "[3]", "result": "negligible effect"}]}]}
